Laboratory results published in US20140113899A1 (priority 2011, published 2014).
Where two headings read alike, the source gives them in different places.

Key:
Alternaria alternata = test: Test Example 15: in vitro antimicrobial activity test with fenpropimorph and Compound I-1; type: cell-based
Excerpt: Then, a mycelial growth inhibition ratio against Alternaria alternata was obtained.

Pyricularia oryzae [1] = type: cell-based
Pythium aphanidermatum = test: Test Example 19: in vitro antimicrobial activity test with metalaxyl and Compound I-1; type: cell-based
Fusarium graminearum [2] = type: in vivo
Microdocum nivale [3] = test: Test Example 10: in vitro antimicrobial activity test with penthiopyrad and Compound I-1
Protocol: (§1) In the test, a flora disk of 4 mm in diameter was cut from an area around a colony of Microdocum nivale pre-cultured in advance in a pre-culture PDA medium, and Microdocum nivale was inoculated on the PDA medium where chemical agents were mixed. After culturing at 25° C. for 3 days, a diameter of a grown colony was measured. Then, a mycelial growth inhibition ratio was calculated by comparing the diameter of this grown colony with a diameter of a colony on a medium without the chemical agents. As in Test Example 1, a cooperative effect was judged by use of Colby's formula.
Then, a mycelial growth inhibition ratio against Microdocum nivale was obtained.

Puccinia recondida = test: Test Example 7: controlling effect of isopyrazam and Compound I-1 on wheat brown rust; type: in vivo
Protocol: Isopyrazam and Compound I-1 were mixed at a given ratio and a test for a cooperative effect against wheat brown rust was carried out. First, a chemical suspension containing isopyrazam and Compound I-1 were prepared and sprayed on a pot of a wheat plant at two leaves stage so that thus sprayed isopyrazam and Compound I-1 became a predetermined dosage. Then, after the pot was left for approximately one hour at a room temperature so that the plant body dries, Puccinia recondida was inoculated by spraying an urediniospore suspended solution (1×10^5/ml) of Puccinia recondida. Then, the pot was kept in a wet chamber at 20° C. for 15 hours, and after 14 days, onset of disease was examined by a disease-onset area index. Here, the test was conducted by use of one plot pot.

Botrytis cinere = test: Test Example 11: in vitro antimicrobial activity test with azoxystrobin and Compound I-1; type: cell-based
Excerpt: Then, a mycelial growth inhibition ratio against Botrytis cinere was obtained.

Fusarium graminearum [4] = type: in vivo; details: Fluopyram 20 g/ha alone
Glomerella cingulata = test: Test Example 4: in vitro antimicrobial activity test with bixafen and Compound I-1; type: cell-based
Fusarium graminearum [5] = type: in vivo; details: Furametpyr 20 g/ha alone
Fusarium graminearum [6] = type: in vivo; remark: listed apart in the source
Fusarium graminearum [7] = type: in vivo; details: wettable powder containing only the compound, 500 mg/L, sprayed at 1,000 L/ha; fourth to seventh days after inoculation
Rhizoctonia solani = test: Test Example 18: in vitro antimicrobial activity test with chlorothalonil and Compound I-1; type: cell-based
[8] = test system: Pseudocercoporella herpotrichoides; test: Test Example 16: in vitro antimicrobial activity test with thiophanate-methyl and Compound I-1; type: cell-based
Microdocum nivale [9] = test: Test Example 9: in vitro antimicrobial activity test with benodanil and Compound I-1
Protocol: as §1

Microdocum nivale [10] = test: Test Example 14: in vitro antimicrobial activity test with prothioconazole and Compound I-1
Gaeumannomyces graminis = test: Test Example 13: in vitro antimicrobial activity test with prochloraz and Compound I-1; type: cell-based
Excerpt: Then, a mycelial growth inhibition ratio against Gaeumannomyces graminis was obtained.

Pyricularia oryzae [11] = type: cell-based; remark: listed apart in the source
Fusarium graminearum [12] = type: in vivo; remark: listed apart in the source
[13] = compound 25 g/ha alone (Metconazole 0 g/ha)
[14] = compound 50 g/ha alone (Metconazole 0 g/ha)
[15] = compound 75 g/ha alone (Metconazole 0 g/ha)

CC(Cc1ccc(C(C)(C)C)cc1)CN1C[C@@H](C)O[C@@H](C)C1 (stereo partly drawn) [Fenpropimorph]
Mycelial Growth Inhibition Ratio % Measured Value (Alternaria alternata; Fenpropimorph 0.0393 ppm alone): 0%
Mycelial Growth Inhibition Ratio % Measured Value (Alternaria alternata; Fenpropimorph 0.1575 ppm alone): 0%

CC(C)C1CCC(Cc2ccc(Cl)cc2)C1(O)Cn1cncn1 (stereo not drawn) [Ipconazole]
Mycelial Growth Inhibition Ratio % Measured Value (Pyricularia oryzae [1]; Ipconazole 0.0393 ppm alone): 11%
Mycelial Growth Inhibition Ratio % Measured Value (Pyricularia oryzae [1]; Ipconazole 0.1575 ppm alone): 33%
Mycelial Growth Inhibition Ratio % Measured Value (Pyricularia oryzae [1]; Ipconazole 0.63 ppm alone): 72%

COCC(=O)N(c1c(C)cccc1C)C(C)C(=O)OC (stereo not drawn) [Metalaxyl]
Mycelial Growth Inhibition Ratio % Measured Value (Pythium aphanidermatum; Metalaxyl 0.0393 ppm alone): 3%
Mycelial Growth Inhibition Ratio % Measured Value (Pythium aphanidermatum; Metalaxyl 0.1575 ppm alone): 7%
Mycelial Growth Inhibition Ratio % Measured Value (Pythium aphanidermatum; Metalaxyl 0.63 ppm alone): 12%
Mycelial Growth Inhibition Ratio % Measured Value (Pythium aphanidermatum; Metalaxyl 2.5 ppm alone): 14%
Mycelial Growth Inhibition Ratio % Measured Value (Pythium aphanidermatum; Metalaxyl 10 ppm alone): 25%

C[C@]1(CCl)CC[C@@H](Cc2ccccc2)[C@]1(O)Cn1cncn1 (racemic) [Compound I-12, (1RS,2SR,5SR)-2-chloromethyl-5-benzyl-2-methyl-1-(1H-1,2,4-triazole-1-ylmethyl)cyclopentanol]
Actual Protective Value (Fusarium graminearum [2]; [13]): 40.0
Actual Protective Value (Fusarium graminearum [2]; [14]): 65.6
Actual Protective Value (Fusarium graminearum [2]; [15]): 75.6

CC(C)CC(C)c1sccc1NC(=O)c1cn(C)nc1C(F)(F)F (stereo not drawn) [Penthiopyrad]
Mycelial Growth Inhibition Ratio % Measured Value (Microdocum nivale [3]; Penthiopyrad 0.0393 ppm alone): 2%
Mycelial Growth Inhibition Ratio % Measured Value (Microdocum nivale [3]; Penthiopyrad 0.1575 ppm alone): 2%
Mycelial Growth Inhibition Ratio % Measured Value (Microdocum nivale [3]; Penthiopyrad 0.63 ppm alone): 2%
Mycelial Growth Inhibition Ratio % Measured Value (Microdocum nivale [3]; Penthiopyrad 2.5 ppm alone): 7%
Mycelial Growth Inhibition Ratio % Measured Value (Microdocum nivale [3]; Penthiopyrad 10 ppm alone): 36%

CC(C)C1C2CCC1c1c(NC(=O)c3cn(C)nc3C(F)F)cccc12 (stereo not drawn) [Isopyrazam]
Actual Protective Value (Puccinia recondida; Isopyrazam 3.125 g/ha alone): 57

CO/C=C(/C(=O)OC)c1ccccc1Oc1cc(Oc2ccccc2C#N)ncn1 [Azoxystrobin]
Mycelial Growth Inhibition Ratio % Measured Value (Botrytis cinere; Azoxystrobin 0.1575 ppm alone): 41%
Mycelial Growth Inhibition Ratio % Measured Value (Botrytis cinere; Azoxystrobin 0.63 ppm alone): 60%
Mycelial Growth Inhibition Ratio % Measured Value (Botrytis cinere; Azoxystrobin 2.5 ppm alone): 69%
Mycelial Growth Inhibition Ratio % Measured Value (Botrytis cinere; Azoxystrobin 10 ppm alone): 71%

O=C(NCCc1ncc(C(F)(F)F)cc1Cl)c1ccccc1C(F)(F)F [Fluopyram]
Actual Protective Value (Fusarium graminearum [4]): 0

Cn1cc(C(=O)Nc2ccc(F)cc2-c2ccc(Cl)c(Cl)c2)c(C(F)F)n1 [Bixafen]
Mycelial Growth Inhibition Ratio % Measured Value (Glomerella cingulata; Bixafen 0.0393 ppm alone): 5%
Mycelial Growth Inhibition Ratio % Measured Value (Glomerella cingulata; Bixafen 0.1575 ppm alone): 7%
Mycelial Growth Inhibition Ratio % Measured Value (Glomerella cingulata; Bixafen 0.63 ppm alone): 7%
Mycelial Growth Inhibition Ratio % Measured Value (Glomerella cingulata; Bixafen 2.5 ppm alone): 16%
Mycelial Growth Inhibition Ratio % Measured Value (Glomerella cingulata; Bixafen 10 ppm alone): 38%

CC1(C)CCC(Cc2ccc(Cl)cc2)C1(O)Cn1cncn1 (stereo not drawn) [Metconazole]
Actual Protective Value (Fusarium graminearum [2]; Metconazole 10 g/ha alone): 13.9
Actual Protective Value (Fusarium graminearum [2]; Metconazole 20 g/ha alone): 26.7

Cc1nn(C)c(Cl)c1C(=O)Nc1cccc2c1C(C)OC2(C)C (stereo not drawn) [Furametpyr]
Actual Protective Value (Fusarium graminearum [5]): 0

C[C@@]1(CCl)CC[C@H](Cc2ccc(Cl)cc2)[C@@]1(O)Cn1cncn1 (racemic) [Compound I-1, (1RS,2SR,5SR)-5-(4-chlorobenzyl)-2-chloromethyl-2-methyl-1-(1H-1,2,4-triazole-1-ylmethyl)cyclopentanol]
Mycelial Growth Inhibition Ratio % Measured Value (Botrytis cinere; Compound I-1 0.02 ppm alone): 25%
Mycelial Growth Inhibition Ratio % Measured Value (Botrytis cinere; Compound I-1 0.078 ppm alone): 47%
Mycelial Growth Inhibition Ratio % Measured Value (Glomerella cingulata; Compound (I) 0.005 ppm alone): 13%
Mycelial Growth Inhibition Ratio % Measured Value (Glomerella cingulata; Compound (I) 0.02 ppm alone): 23%
Actual Protective Value (Fusarium graminearum [6]; Compound (I) 4 g/ha alone): 9.4
Actual Protective Value (Fusarium graminearum [6]; Compound (I) 8 g/ha alone): 12.9
Mycelial Growth Inhibition Ratio % Measured Value (Microdocum nivale [3]; Compound I-1 0.005 ppm alone): 5%
Mycelial Growth Inhibition Ratio % Measured Value (Microdocum nivale [3]; Compound I-1 0.02 ppm alone): 10%
Mycelial Growth Inhibition Ratio % Measured Value (Microdocum nivale [3]; Compound I-1 0.078 ppm alone): 12%
Mycelial Growth Inhibition Ratio % Measured Value (Alternaria alternata; Compound I-1 0.02 ppm alone): 3%
Mycelial Growth Inhibition Ratio % Measured Value (Alternaria alternata; Compound I-1 0.078 ppm alone): 24%
Mycelial Growth Inhibition Ratio % Measured Value (Alternaria alternata; Compound I-1 0.313 ppm alone): 50%
protective value (Fusarium graminearum [7]): ≥ 90%
Mycelial Growth Inhibition Ratio % Measured Value (Rhizoctonia solani; Compound I-1 1.25 ppm alone): 68%
Mycelial Growth Inhibition Ratio % Measured Value ([8]; Compound I-1 0.078 ppm alone): 3%
Mycelial Growth Inhibition Ratio % Measured Value ([8]; Compound I-1 0.313 ppm alone): 42%
Mycelial Growth Inhibition Ratio % Measured Value (Microdocum nivale [9]; Compound I-1 0.078 ppm alone): 8%
Actual Protective Value (Puccinia recondida; Compound I-1 0.1875 g/ha alone): 13
Actual Protective Value (Puccinia recondida; Compound I-1 0.375 g/ha alone): 37
Actual Protective Value (Puccinia recondida; Compound I-1 0.75 g/ha alone): 67
Actual Protective Value (Puccinia recondida; Compound I-1 1.5 g/ha alone): 80
Actual Protective Value (Puccinia recondida; Compound I-1 3 g/ha alone): 93
Mycelial Growth Inhibition Ratio % Measured Value (Microdocum nivale [10]; Compound I-1 0.078 ppm alone): 8%
Mycelial Growth Inhibition Ratio % Measured Value (Microdocum nivale [10]; Compound I-1 0.313 ppm alone): 34%
Mycelial Growth Inhibition Ratio % Measured Value (Gaeumannomyces graminis; Compound I-1 0.02 ppm alone): 0%
Mycelial Growth Inhibition Ratio % Measured Value (Gaeumannomyces graminis; Compound I-1 0.078 ppm alone): 17%
Mycelial Growth Inhibition Ratio % Measured Value (Gaeumannomyces graminis; Compound I-1 0.313 ppm alone): 74%
Mycelial Growth Inhibition Ratio % Measured Value (Pythium aphanidermatum; Compound I-1 0.005 ppm alone): 9%

CCCN(CCOc1c(Cl)cc(Cl)cc1Cl)C(=O)n1ccnc1 [Prochloraz]
Mycelial Growth Inhibition Ratio % Measured Value (Gaeumannomyces graminis; Prochloraz 0.0393 ppm alone): 12%
Mycelial Growth Inhibition Ratio % Measured Value (Gaeumannomyces graminis; Prochloraz 0.1575 ppm alone): 69%
Mycelial Growth Inhibition Ratio % Measured Value (Gaeumannomyces graminis; Prochloraz 0.63 ppm alone): 98%

OC(CC1CC1(Br)Br)(Cn1cncn1)C1(Cl)CC1 (stereo not drawn) [Compound XVII-2, 2-(1-chlorocyclopropyl)-1-(2,2-dibromocyclopropyl)-3-(1H-1,2,4-triazole-1-yl)propane-2-ol]
protective value (Fusarium graminearum [7]): ≥ 90%

N#Cc1c(Cl)c(Cl)c(Cl)c(C#N)c1Cl [Chlorothalonil]
Mycelial Growth Inhibition Ratio % Measured Value (Rhizoctonia solani; Chlorothalonil 0.0393 ppm alone): 0%
Mycelial Growth Inhibition Ratio % Measured Value (Rhizoctonia solani; Chlorothalonil 0.1575 ppm alone): 15%
Mycelial Growth Inhibition Ratio % Measured Value (Rhizoctonia solani; Chlorothalonil 0.63 ppm alone): 74%
Mycelial Growth Inhibition Ratio % Measured Value (Rhizoctonia solani; Chlorothalonil 2.5 ppm alone): 84%
Mycelial Growth Inhibition Ratio % Measured Value (Rhizoctonia solani; Chlorothalonil 10 ppm alone): 98%

C[C@]1(CCl)CC[C@@H](Cc2ccc(F)cc2)[C@]1(O)Cn1cncn1 (racemic) [Compound I-11, (1RS,2SR,5 SR)-2-chloromethyl-5-(4-fluorobenzyl)-2-methyl-1-(1H-1,2,4-triazole-1-ylmethyl)cyclopentanol]
Actual Protective Value (Fusarium graminearum [2]; [13]): 25.6
Actual Protective Value (Fusarium graminearum [2]; [14]): 56.7
Actual Protective Value (Fusarium graminearum [2]; [15]): 66.7

COC(=O)N(OC)c1ccccc1COc1ccn(-c2ccc(Cl)cc2)n1 [Pyraclostrobin]
Actual Protective Value (Fusarium graminearum [6]; Pyraclostrobin 10 g/ha alone): 10.6
Actual Protective Value (Fusarium graminearum [6]; Pyraclostrobin 20 g/ha alone): 23.5
Actual Protective Value (Fusarium graminearum [6]; Pyraclostrobin 30 g/ha alone): 36.5

CC(C)(C)C(O)(CCc1ccc(Cl)cc1)Cn1cncn1 (stereo not drawn) [Tebuconazole]
Mycelial Growth Inhibition Ratio % Measured Value (Pyricularia oryzae [11]; Tebuconazole 0.0393 ppm alone): 3%
Mycelial Growth Inhibition Ratio % Measured Value (Pyricularia oryzae [11]; Tebuconazole 0.1575 ppm alone): 12%
Mycelial Growth Inhibition Ratio % Measured Value (Pyricularia oryzae [11]; Tebuconazole 0.63 ppm alone): 50%

O=C(Nc1ccccc1-c1ccc(Cl)cc1)c1cccnc1Cl [Boscalid]
Actual Protective Value (Fusarium graminearum [12]; Boscalid 20 g/ha alone): 0
Actual Protective Value (Fusarium graminearum [12]; Boscalid 40 g/ha alone): 4
Actual Protective Value (Fusarium graminearum [12]; Boscalid 60 g/ha alone): 15
Actual Protective Value (Fusarium graminearum [12]; Boscalid 80 g/ha alone): 8

OC(Cc1ccccc1Cl)(Cn1nc[nH]c1=S)C1(Cl)CC1 (stereo not drawn) [Prothioconazole]
Mycelial Growth Inhibition Ratio % Measured Value (Microdocum nivale [10]; Prothioconazole 0.1575 ppm alone): 11%
Mycelial Growth Inhibition Ratio % Measured Value (Microdocum nivale [10]; Prothioconazole 0.63 ppm alone): 34%
Mycelial Growth Inhibition Ratio % Measured Value (Microdocum nivale [10]; Prothioconazole 2.5 ppm alone): 76%

COC(=O)NC(=S)Nc1ccccc1NC(=S)NC(=O)OC [Thiophanate-methyl]
Mycelial Growth Inhibition Ratio % Measured Value ([8]; Thiophanate-methyl 0.0393 ppm alone): 0%
Mycelial Growth Inhibition Ratio % Measured Value ([8]; Thiophanate-methyl 0.1575 ppm alone): 0%
Mycelial Growth Inhibition Ratio % Measured Value ([8]; Thiophanate-methyl 0.63 ppm alone): 52%

O=C(Nc1ccccc1)c1ccccc1I [Benodanil]
Mycelial Growth Inhibition Ratio % Measured Value (Microdocum nivale [9]; Benodanil 0.0393 ppm alone): 0%
Mycelial Growth Inhibition Ratio % Measured Value (Microdocum nivale [9]; Benodanil 0.1575 ppm alone): 0%
Mycelial Growth Inhibition Ratio % Measured Value (Microdocum nivale [9]; Benodanil 0.63 ppm alone): 0%
Mycelial Growth Inhibition Ratio % Measured Value (Microdocum nivale [9]; Benodanil 2.5 ppm alone): 0%
Mycelial Growth Inhibition Ratio % Measured Value (Microdocum nivale [9]; Benodanil 10 ppm alone): 4%
